“Also recorded” adds a separate entry of the source.
How the values were obtained:
[1] = tested on: optic nerve oligodendrocytes; assay: Oxygen and glucose deprivation (OGD) cell death in oligodendrocyte cultures (calcein-AM); format: cell-based, Sprague-Dawley rats; conditions: 1h OGD, calcein 24h later; PPADS 100 µM, BBG 50 nM, CNQX 30 µM, APV 100 µM, apyrase 20 U/ml, ARL67156 100 µM, CBX 20 µM, FFA 100 µM, MFQ 1 nM
Description: (§1) Primary cultures of oligodendrocytes derived from optic nerves of 12 day-old Sprague-Dawley rats were obtained as previously described (Matute et al., 1997 Proc Natl Acad Sci U S A 94:8830-8835.).Cells were maintained at 37°C and 5% CO2 in a chemically defined medium (Matute et al., 1997 Proc Natl Acad Sci U S A 94:8830-8835.). After 2-4 days in vitro, cultures were composed of at least 98% 04/Ga1C^+ cells. No microglial cells were detected in these cultures. […] Cell death was determined 24h later using calcein-AM (Invitrogen) as previously described (Matute et al., 1997 Proc Natl Acad Sci U S A 94:8830-8835.). Antagonists were present during in vitro ischaemia and during the next 24h incubation period. […] To assay the levels of reactive oxygen species (ROS), cells were loaded with 40 µM 2',7'- dichlorodihyfluoresceindiacetate (DCFDA; Invitrogen) and 1 µM calcein red-orange (Molecular Probes) immediately after OGD. Calcein was used to quantify the number of cells within the reading field. Fluorescence was measured as above and values were plotted as the percentage of DCFDA/calcein red-orange fluorescence versus control. The changes in mitochondrial membrane potential were monitored with 5,5',6,6'-tetrachloro-1,1',3,3'-tetraethylbenzimidazolcarbocyanine iodide (JC-1; Molecular Probes). Immediately after OGD, cells were loaded with JC-1 (3 µM) at 37°C for 30 min. The changes in the membrane potential were calculated as the red (emission at 590)/green (emission at 520) ratio in each condition and results were normalized to control.

[2] = biological target: T1, P2X7 receptors in oligodendrocytes (Rattus norvegicus, UniProt Q64663); assay: ATP-evoked inward currents in whole-cell clamped oligodendrocytes; format: cell-based, Sprague-Dawley rats; conditions: -70 mV; CBX 20 µM, MFQ 1 nM
T1 construct: ATP (1 mM)-evoked inward currents in whole-cell clamped oligodendrocytes at -70 mV; endogenous in cells; host or cells: primary rat optic nerve oligodendrocytes
T1 sequence (Q64663 1-595): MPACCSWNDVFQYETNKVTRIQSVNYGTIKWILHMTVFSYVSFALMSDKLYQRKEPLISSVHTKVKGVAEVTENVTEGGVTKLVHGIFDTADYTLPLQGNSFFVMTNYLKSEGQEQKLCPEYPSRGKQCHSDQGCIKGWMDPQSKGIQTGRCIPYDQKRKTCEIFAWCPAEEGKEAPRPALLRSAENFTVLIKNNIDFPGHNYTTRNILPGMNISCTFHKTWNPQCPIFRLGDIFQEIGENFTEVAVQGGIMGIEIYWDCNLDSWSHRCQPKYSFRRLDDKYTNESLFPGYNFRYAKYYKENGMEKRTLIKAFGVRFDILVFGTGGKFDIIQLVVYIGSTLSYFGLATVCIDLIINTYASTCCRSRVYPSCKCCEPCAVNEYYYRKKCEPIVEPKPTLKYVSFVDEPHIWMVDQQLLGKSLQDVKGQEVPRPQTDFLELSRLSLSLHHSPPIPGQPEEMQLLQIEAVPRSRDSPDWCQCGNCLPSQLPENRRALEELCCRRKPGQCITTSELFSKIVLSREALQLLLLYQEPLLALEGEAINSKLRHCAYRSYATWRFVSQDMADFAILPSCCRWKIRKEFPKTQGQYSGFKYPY
Description: Primary cultures of oligodendrocytes derived from optic nerves of 12 day-old Sprague-Dawley rats were obtained as previously described (Matute et al., 1997 Proc Natl Acad Sci U S A 94:8830-8835.).Cells were maintained at 37°C and 5% CO2 in a chemically defined medium (Matute et al., 1997 Proc Natl Acad Sci U S A 94:8830-8835.). After 2-4 days in vitro, cultures were composed of at least 98% 04/Ga1C^+ cells. No microglial cells were detected in these cultures. […] Cell death was determined 24h later using calcein-AM (Invitrogen) as previously described (Matute et al., 1997 Proc Natl Acad Sci U S A 94:8830-8835.). […] Calcein was used to quantify the number of cells within the reading field. Fluorescence was measured as above and values were plotted as the percentage of DCFDA/calcein red-orange fluorescence versus control. The changes in mitochondrial membrane potential were monitored with 5,5',6,6'-tetrachloro-1,1',3,3'-tetraethylbenzimidazolcarbocyanine iodide (JC-1; Molecular Probes). […] The changes in the membrane potential were calculated as the red (emission at 590)/green (emission at 520) ratio in each condition and results were normalized to control.
Whole cell recordings were performed at room temperature and at a holding membrane potential of -70 mV. […] Data were analyzed with Excel and Prism software.

[3] = tested on: cultured optic nerve oligodendrocytes; assay: ATP release measurement (luciferin/luciferase) in oligodendrocyte cultures after OGD; format: cell-based, Sprague-Dawley rats; conditions: 1h OGD in the presence of ARL67156; CBX 20 µM, FFA 100 µM, MFQ 1 nM (figure legend)
Description: as §1
(§2) ATP levels were measured using a Luciferin/Luciferase assay kit (Invitrogen) after 1h normoxia or OGD in oligodendrocyte cultures and in isolated optic nerves according to the manufacturer's instructions. The luminescence was measured with a luminometer Synergy-HT (BioTek) with an integration time of 3 sec. Because ATP was measured in the culture medium and in the solution bathing optic nerves, the concentration of ATP at the extracellular surface, near the vicinity of the receptor was underestimated (Joseph et al., 2003. J Biol Chem 278:23331-23342). The limit of ATP detection was 1 nM and luminescence was linear with increasing ATP concentrations to 1000 nM. The total amount of ATP was calculated according to standard curves and ATP release was expressed in percentage vs control.

[4] = tested on: optic nerves; assay: Optic nerve ischaemia (OGD), tissue damage by LDH release; parameters: species or system rats; conditions: P28 rat optic nerves, 1h OGD + 2h reperfusion; PPADS 1 mM, BBG 50 nM, oATP 1 mM, apyrase 20 U/ml, MFQ 1 µM, CBX 100 µM, FFA 1 mM
Description: (§3) After 1h OGD at 37°C, the medium was replaced with fresh solution containing glucose and equilibrated with 95% O2, 5% CO2 and the nerves were incubated for another 2h at 37°C to simulate reperfusion.

[5] = tested on: optic nerve; assay: ATP release measurement (luciferin/luciferase) in isolated optic nerves after OGD; parameters: species or system rats; conditions: MFQ 1 µM, CBX 100 µM
Description: as §2, §3

CC1(C)[C@@H](OC(=O)CCC(=O)O)CC[C@]2(C)[C@H]3C(=O)C=C4[C@@H]5C[C@@](C)(C(=O)O)CC[C@]5(C)CC[C@@]4(C)[C@]3(C)CC[C@@H]12 [CBX]
OGD-induced oligodendrocyte cell death [1]: inhibited | ATP (1 mM)-evoked inward currents [2]: not reduced | ATP levels after OGD [3]: significantly reduced | ischaemia-induced damage to optic nerves (LDH release) [4]: reduced; also recorded: attenuated | ATP levels during OGD [5]: reduced

From patent publication EP2322149A1, “Methods and compositions for the treatment of ischemia” (Universidad del Pais Vasco, priority 2009, dated 2011)
